# Assay results from patent publication US8168628B2, “Conjugated psychotropic drugs and uses thereof” (Ramot at Tel-Aviv University Ltd., priority 2001, dated 2012).
# Structures can show the parent of a compound that is named as a salt. Where two headings read alike, the source gives them in different places.
# How the values were obtained:
# [1] = test system: HL 60 MX2 (MDR); experiment: Proliferation test, HL 60 MX2 (MDR) cells; assay type: cell-based; conditions: Homo sapiens, HL60/MX2; linear regression of survival percentage
# Experimental: (§1) Cell lines: Human prostate carcinoma (PC-3), human colon carcinoma (HT-29), murine melanoma (B-16) and its drug resistant subclone (B-16 MDR), mouse fibroblasts (3T3), myeloid leukemia (HL 60) and its drug resistant subclone (HL 60 MX2), endometrium cell line (MES SA) and its drug resistant subclone (MES DX5), jurkat T lymphoma and monocyte leukemia (U-937), were used in this study.
# (§2) Proliferation of cancer and normal cells: Proliferation was measured by neutral red assay or by a fluorometric assay quantitating DNA content. In the neutral red assay, the neutral red is absorbed by lysosomes, thus causing coloring of living cells. Quantitative analysis is performed by colorimetric assay (ELISA reader at 550 nm). In the fluorometric assay, alamar blue is used as a redox indicator. Alamar blue fluorescence was measured at an excitation wavelength of 544 nm and an emission wavelength of […] (FLUOstar BMG Lab Technologies, Offenburg, Germany).
# (§3) The cells were sub-cultured and the tested compounds were added thereto in increasing concentrations. The IC50 values were determined by linear regression of the survival percentage of the cells.
# [2] = test system: B16; experiment: Proliferation test, B16 melanoma cells; assay type: cell-based, murine
# Experimental: as §1, §2, §3
# [3] = test system: Jurkat T lymphoma cells; experiment: Proliferation / viability test, Jurkat T lymphoma cells; assay type: cell-based; conditions: Homo sapiens
# Experimental: as §1, §2, §3
# [4] = test system: C6 rat glioma cells; experiment: Viability of C6 rat glioma cells (neutral red); assay type: cell-based
# Experimental: as §2
# The cells were sub-cultured and the tested compounds were added thereto in increasing concentrations, up to 100 μM.
# [5] = test system: 3T3; experiment: Proliferation test, 3T3 fibroblasts; assay type: cell-based; conditions: Mus musculus, NIH3T3; linear regression of survival percentage
# Experimental: as §1, §2, §3
# [6] = test system: HT-29; experiment: Proliferation test, HT-29 cells; assay type: cell-based; conditions: Homo sapiens, linear regression of survival percentage
# Experimental: as §1, §2, §3
# [7] = test system: PC-3; experiment: Proliferation test, PC-3 cells; assay type: cell-based; conditions: Homo sapiens, linear regression of survival percentage
# Experimental: as §1, §2, §3
# [8] = test system: MES SA; experiment: Proliferation test, MES SA cells; assay type: cell-based; conditions: Homo sapiens, linear regression of survival percentage
# Experimental: as §1, §2, §3
# [9] = test system: B16 MDR; experiment: Proliferation test, B16 MDR cells; assay type: cell-based, murine; conditions: Mus musculus; linear regression of survival percentage
# Experimental: as §1, §2, §3
# [10] = Stability upon prolonged storage (NMR); assay type: physicochemical; conditions: about 3 months storage; NMR spectroscopy
# [11] = test system: rats; experiment: Behavioral criteria: sedation and mobility score in rats; conditions: score 0-3; for Sedation score: oral, 4-6 hours after treatment
# Experimental: The effect of the administration of the tested compound on animals behavior was measured by evaluating the degree of animal sedation and mobility following the treatment described hereinabove, using a score of from 0 to 3. A score of 0 represents active and mobile animals, 1 represents calm and mobile animals, 2 represents calm and immobile animals and 3 represents completely ataxic and non-alert animals.
# [12] = test system: C6 rat glioma cells; experiment: DNA fragmentation in C6 rat glioma cells (propidium iodide flow cytometry); assay type: cell-based; conditions: Cisplatin 30 μM; perphenazine 25 and 50 μM; AN 168 25, 50 μM (FIG. 18)
# Experimental: Apoptosis and DNA fragmentation: Fragmentation of cell nuclei was studied by flow cytometric analysis of propidium iodide-stained cells. This analysis was performed using a FACScan (Becton Dickinson, Mountain View, Calif.) equipped with an argon ion laser adjusted to an excitation wavelength of 480 nm and with a Doublet Discrimination Module (DDM). Lysis II (Becton Dickinson) software was used for data acquisition. Apoptotic nuclear changes were evaluated according to the criteria of Nicolletti et al..
# The DNA fragmentation was determined by the propidium iodide flow cytometric method described hereinabove.
# [13] = test system: Normal rat fibroblasts; experiment: Proliferation test, normal rat fibroblasts; assay type: cell-based; conditions: Fibroblast, linear regression of survival percentage
# Experimental: The primary cultures of rat fibroblasts were obtained from neonatal rats using known procedures.
# as §2, §3
# [14] = test system: rats; experiment: Catalepsy in rats, “piano” test, oral administration; assay type: in vivo, rat
# Experimental: To this end, the induced catalepsy, the prolactin blood levels and the animal behavior were measured as described hereinabove, following oral administration of either AN 168 or perphenazine alone to rats. Animals, divided 5 per cage, were treated by oral administration of perphenazine or AN-168 dissolved in 1% lactic acid. Control animals received vehicle (lactic acid) only.
# The catalepsy induced by oral administration of various concentrations of AN 168 and perphenazine was measured by the “wall” test and the “piano” test described hereinabove. The time course of catalepsy was measured 4-24 hours following oral administration of 2.5, 5, 10 and 20 mg/kg perphenazine and respective equimolar doses of 3.5, 7, 14 and 28 mg/kg AN-168. The total catalepsy represents the sum of average catalepsy per treated group during the 4-24 hours of follow-up.
# [15] = test system: rats; experiment: D-Amphetamine-induced hyperactivity in rats; assay type: in vivo, rat; conditions: i.p., amphetamine 2.5 mg/kg i.p.
# Experimental: D-Amphetamine-induced hyperactivity in rats: The efficacy of the chemical conjugates of the present invention was studied using the D-amphetamine-induced hyperactivity and motility model, which is known as one of the most established animal models for schizophrenia.
# Naïve Wistar male rats were placed in individual boxes. In each experiment 4 rats were studied. Perphenazine or equimolar doses of its chemical conjugate AN-168 were administered intraperitoneally (ip) to the rats 30 minutes prior to intraperitoneal administration of amphetamine (2.5 mg/kg), or 90 minutes prior to oral administration of amphetamine (2.5 mg/kg). The animals locomotor activity was assessed using two parameters: climbing attempts of the animal on the barrel walls (as big movements) and head movement of the animal (as small movements). Assessment was recorded every 15 minutes for two hours. Each animal was tested at each time point for 120 seconds.
# The climbing behavior of the rats in each group was measured as described hereinabove.
# [16] = test system: U-937; experiment: Proliferation test, U-937 cells; assay type: cell-based; conditions: Homo sapiens, linear regression of survival percentage
# Experimental: as §1, §2, §3
# [17] = C6 glioma (MDR) cells, 24 hours (FIG. 14)
compound,measurement,setting,value
"NCCCC(=O)OCCN1CCN(CCCN2c3ccccc3Sc3ccc(Cl)cc32)CC1 [AN-168, Perphenazine 4-aminobutyrate Trihydrochloride]",IC50,[1],18.4 µM
same,IC50,"[2]; Mus musculus, B16, linear regression of survival percentage",26.8 ± 1.8 µM
same,effect on the proliferation of B16 murine melanoma cells,[2]; representative experiment (FIG. 13),relatively active as anti-proliferative drugs
same,IC50,"[3]; alamar blue method (FIG. 15), read-out: IC50, Jurkat T lymphoma cells viability",19 µM
same,IC50,"[3]; linear regression of survival percentage, read-out: IC50, JURKAT",11.3 µM
same,anti-proliferative activity in C6 glioma cells,[4]; [17],high anti-proliferative activity
same,concentration causing substantial cell death,[4]; [17],about 20 μM
same,IC50,"[4]; Rattus norvegicus, Glioma cell, 24 hours treatment, neutral red, up to 100 μM (FIG. 14)",24.2 µM
same,IC50,[5],25 µM
same,IC50,[6],23.1 ± 9 µM
same,IC50,[7],45.5 µM
same,IC50,[8],18.2 µM
same,IC50,[9],23 ± 16 µM
same,stability upon prolonged storage,[10],"slow decomposition, probably due to hydrolysis, occurred"
same,"sedation and mobility score, 30 min","[11]; i.p., 5 mg/kg perphenazine, 7.5 mg/kg fluphenazine or equimolar conjugate, 30 min",0
same,"sedation and mobility score, 60 min","[11]; i.p., 5 mg/kg perphenazine, 7.5 mg/kg fluphenazine or equimolar conjugate, 60 min",0
same,"sedation and mobility score, 90 min","[11]; i.p., 5 mg/kg perphenazine, 7.5 mg/kg fluphenazine or equimolar conjugate, 90 min",1
same,"sedation and mobility score, 120 min","[11]; i.p., 5 mg/kg perphenazine, 7.5 mg/kg fluphenazine or equimolar conjugate, 120 min",1
same,"sedation and mobility score, 180 min","[11]; i.p., 5 mg/kg perphenazine, 7.5 mg/kg fluphenazine or equimolar conjugate, 180 min",1
same,"sedation and mobility score, 240 min","[11]; i.p., 5 mg/kg perphenazine, 7.5 mg/kg fluphenazine or equimolar conjugate, 240 min",1
same,Sedation score,[11]; 3.5 mg/kg,0
same,Sedation score,[11]; 7 mg/kg,0
same,Sedation score,[11]; 14 mg/kg,1
same,Sedation score,[11]; 28 mg/kg,2
same,DNA fragmentation,[12],induced a dramatically increase in DNA fragmentation
same,IC50,[13],45.8 µM
same,time course of catalepsy,"[14]; oral, 3.5-28 mg/kg AN 168 vs equimolar perphenazine, 4-6 hours (FIG. 8a)",consistent reduction in the cataleptic behavior at all concentrations
same,total catalepsy,"[14]; oral, 5, 10, 20 mg/kg perphenazine, 7, 14, 28 mg/kg AN-168, 4-6 hours (FIGS. 9a, 9b)",consistently lower than that induced by perphenazine
same,"time course of catalepsy, experiments conducted 3 months later","[14]; oral, 14 and 28 mg/kg AN 168, 4-6 hours (FIG. 8b)",higher catalepsy was induces as compared with the proceeding experiments
same,D-amphetamine-induced climbing behavior,"[15]; AN-168 0.5 or 1.5 mg/kg, two hours (FIGS. 22, 23)",completely antagonized the climbing behavior induced by amphetamine even at low doses
same,D-amphetamine-induced head movements and other small body movement,"[15]; two hours (FIGS. 24, 25)",inferior to that of perphenazine
same,IC50,[16],14.2 µM
